Measured values reported in publication PMC3809078 (Journal of natural products, 2013).

Legend:
T47D cells = experiment: Cell proliferation/viability assay; assay type: cell-based, human
MDA-MB-231 cells = experiment: Cell proliferation/viability assay; assay type: cell-based, human
[1] = tested on: retinoic acid receptors (RARs); details: cytotoxic activity attributed to it; cited from earlier work

SMILES: CC1=C(CC/C(C)=C/CC/C(C)=C/C[C@@H](O)C2=CC(=O)OC2)C(C)(C)C(=O)CC1 [Compound 1, thorectidaeolide A]
- effect on cell viability (in words) (T47D cells): Neither 1, nor 2, or any of the other less active sesterterpenes suppressed
- effect on cell viability (in words) (MDA-MB-231 cells): Neither 1, nor 2, or any of the other less active sesterterpenes suppressed

SMILES: CC(=O)O[C@H](C/C=C(\C)CC/C=C(\C)CCC1=C(C)CCC(=O)C1(C)C)C1=CC(=O)OC1 [Compound 2, 4-acetoxythorectidaeolide A]
- effect on cell viability (in words) (T47D cells): Neither 1, nor 2, or any of the other less active sesterterpenes suppressed
- effect on cell viability (in words) (MDA-MB-231 cells): Neither 1, nor 2, or any of the other less active sesterterpenes suppressed

SMILES: CC1=C(CC/C(C)=C/CC/C(C)=C/CCC2=CC(=O)OC2O)C(C)(C)CCC1 (stereo not shown) [Compound 11, luffariellolide]
- effect on cell viability (in words) (T47D cells): significant level of cytotoxicity
- effect on cell viability (in words) (MDA-MB-231 cells): significant level of cytotoxicity
- action on retinoic acid receptors (in words) [1]: agonist of retinoic acid receptors
